The test system of assay [1] is 79-nt RNA ending at A79 (RNA, riboswitch) UAUCAGUUAUAUGACUGACGGAACGUGGAAUUAACCACAUGAAGUAUAACGAUGACAAUGCCGACCGUCUGGGCGAACA
Nature of the assay: ITC. The conditions noted are these: 150 mM KCl, 10 mM MgCl2; 50 mM HEPES-KOH pH 7.4, 37 °C; apparent; exact value in Supplementary Figure 1b.

Assay [2] concerns 81-83, 92-94A (ligated, with 3' tether, annealed to biotin-DNA-Cy5) (DNA:RNA, riboswitch) UAUCAGUUAUAUGACUGACGGAACGUGGAAUUAACCACAUGAAGUAUAACGAUGACAAUGCCGACCGUCUGGGCGAACAAAAAUAGAUUGUAAAUUCAUUAGCGGUAUUCCGGAAUUGCCGUAAUCGCG/CGCGATTACGGCAATTCCGGAATACCGCTAATG
Nature of the assay: smFRET. The conditions noted are these: 150 mM KCl, 10 mM MgCl2; 50 mM HEPES-KOH pH 7.4; thermally refolded; majority binds.

Assay [3] deals with 81-83A (ligated, with 3' tether, annealed to biotin-DNA-Cy5) (DNA:RNA, riboswitch) UAUCAGUUAUAUGACUGACGGAACGUGGAAUUAACCACAUGAAGUAUAACGAUGACAAUGCCGACCGUCUGGGCGAACAAAAAUAGAUUGUCGGUUCAUUAGCGGUAUUCCGGAAUUGCCGUAAUCGCG/CGCGATTACGGCAATTCCGGAATACCGCTAATG
The assay can be described thus: smFRET after vectorial folding (Rep-X). The conditions noted are these: 150 mM KCl, 10 mM MgCl2; 50 mM HEPES pH 7.4; larger bound fraction than WT.

Assay [4] has as its system Δterm (ligated F. ulcerans ZTP aptamer with 3' tether, annealed to biotin-DNA-Cy5) (DNA:RNA, riboswitch) UAUCAGUUAUAUGACUGACGGAACGUGGAAUUAACCACAUGAAGUAUAACGAUGACAAUGCCGACCGUCUGGGCGUUCAUUAGCGGUAUUCCGGAAUUGCCGUAAUCGCG/CGCGATTACGGCAATTCCGGAATACCGCTAATG
Nature of the assay: smFRET titration (TIRF), Langmuir fit. Conditions: 150 mM KCl, 10 mM MgCl2, 50 mM HEPES-KOH pH 7.4, thermally refolded, Pmax 71%, 1.5 μM after vectorial folding.

Assay [5] concerns WT (ligated F. ulcerans ZTP riboswitch with 3' tether, annealed to biotin-DNA-Cy5) (DNA:RNA, riboswitch) UAUCAGUUAUAUGACUGACGGAACGUGGAAUUAACCACAUGAAGUAUAACGAUGACAAUGCCGACCGUCUGGGCGAACAAGCCUAGAUUGUCGGUUCAUUAGCGGUAUUCCGGAAUUGCCGUAAUCGCG/CGCGATTACGGCAATTCCGGAATACCGCTAATG
The assay can be described thus: smFRET. Conditions: 150 mM KCl, 10 mM MgCl2; 50 mM HEPES-KOH pH 7.4; thermally refolded with 1 mM ZMP, ~10% bound; vectorially folded 38%.

Assay [6] concerns 92-94A (ligated, with 3' tether, annealed to biotin-DNA-Cy5) (DNA:RNA, riboswitch) UAUCAGUUAUAUGACUGACGGAACGUGGAAUUAACCACAUGAAGUAUAACGAUGACAAUGCCGACCGUCUGGGCGAACAAGCCUAGAUUGUAAAUUCAUUAGCGGUAUUCCGGAAUUGCCGUAAUCGCG/CGCGATTACGGCAATTCCGGAATACCGCTAATG
Nature of the assay: smFRET. The conditions noted are these: 150 mM KCl, 10 mM MgCl2; 50 mM HEPES-KOH pH 7.4; thermally refolded; partially responsive.

Regarding `NC(=O)c1ncn([C@@H]2O[C@H](COP(=O)(O)O)[C@@H](O)[C@H]2O)c1N`, in assay [1], the Kd was ~ 1 μM. The binding result in assay [2] is recorded as “yes”; in assay [3], “yes”; in assay [5] it was “weak”; in assay [6] it was “weak”. The apparent KD (usually a dissociation constant that holds for the conditions of the assay) in assay [4] worked out at 1.3 µM.

For the origin of these results see PMC7484762 (2020).
